Test results reported in ChEMBL document CHEMBL5360622, “Leucettinibs, a Class of DYRK/CLK Kinase Inhibitors Inspired by the Marine Sponge Natural Product Leucettamine B” (J Med Chem, 2023).
pIC50: −log10 of the molar value.

Key:
[1] = target: Dual specificity protein kinase CLK3 (Homo sapiens, UniProt P49761); format: cell-based, Sf9
[2] = target: T1, Dual specificity tyrosine-phosphorylation-regulated kinase 4 (Homo sapiens, UniProt Q9NR20)
T1 sequence (Q9NR20 whole entry): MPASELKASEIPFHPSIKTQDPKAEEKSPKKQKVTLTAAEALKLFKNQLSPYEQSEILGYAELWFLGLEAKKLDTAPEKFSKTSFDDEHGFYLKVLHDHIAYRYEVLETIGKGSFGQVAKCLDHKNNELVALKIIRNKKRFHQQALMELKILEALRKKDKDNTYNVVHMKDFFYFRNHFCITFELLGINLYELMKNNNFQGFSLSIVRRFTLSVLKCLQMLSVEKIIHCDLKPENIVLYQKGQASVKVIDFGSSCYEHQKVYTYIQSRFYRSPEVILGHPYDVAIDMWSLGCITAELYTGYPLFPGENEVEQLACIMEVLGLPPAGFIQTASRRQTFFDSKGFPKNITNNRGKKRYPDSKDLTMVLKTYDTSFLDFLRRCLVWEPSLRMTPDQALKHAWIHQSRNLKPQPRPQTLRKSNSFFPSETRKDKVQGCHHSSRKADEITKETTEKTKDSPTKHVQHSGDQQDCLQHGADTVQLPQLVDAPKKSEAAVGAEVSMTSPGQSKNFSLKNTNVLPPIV

[3] = target: T2, Dual specificity tyrosine-phosphorylation-regulated kinase 2 (Homo sapiens, UniProt Q92630)
T2 sequence (Q92630 whole entry): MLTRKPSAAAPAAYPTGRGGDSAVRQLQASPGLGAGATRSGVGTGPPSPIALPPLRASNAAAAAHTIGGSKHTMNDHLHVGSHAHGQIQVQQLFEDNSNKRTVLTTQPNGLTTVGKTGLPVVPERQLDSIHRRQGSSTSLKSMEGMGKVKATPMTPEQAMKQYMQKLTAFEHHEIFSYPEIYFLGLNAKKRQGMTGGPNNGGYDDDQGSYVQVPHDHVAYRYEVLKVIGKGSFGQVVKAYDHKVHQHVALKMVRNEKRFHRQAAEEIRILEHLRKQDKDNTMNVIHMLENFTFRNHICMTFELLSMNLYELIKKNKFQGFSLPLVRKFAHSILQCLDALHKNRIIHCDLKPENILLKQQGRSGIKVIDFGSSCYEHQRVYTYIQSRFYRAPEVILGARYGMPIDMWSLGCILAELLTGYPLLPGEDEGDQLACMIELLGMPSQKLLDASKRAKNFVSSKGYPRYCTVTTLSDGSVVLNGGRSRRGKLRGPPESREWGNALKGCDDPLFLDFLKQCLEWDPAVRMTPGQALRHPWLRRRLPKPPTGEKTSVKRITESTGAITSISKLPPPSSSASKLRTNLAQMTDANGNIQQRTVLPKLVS

[4] = target: Dual specificity protein kinase CLK2 (Homo sapiens, UniProt P49760)
Dual specificity protein kinase CLK2, sequence (P49760 whole entry, canonical isoform): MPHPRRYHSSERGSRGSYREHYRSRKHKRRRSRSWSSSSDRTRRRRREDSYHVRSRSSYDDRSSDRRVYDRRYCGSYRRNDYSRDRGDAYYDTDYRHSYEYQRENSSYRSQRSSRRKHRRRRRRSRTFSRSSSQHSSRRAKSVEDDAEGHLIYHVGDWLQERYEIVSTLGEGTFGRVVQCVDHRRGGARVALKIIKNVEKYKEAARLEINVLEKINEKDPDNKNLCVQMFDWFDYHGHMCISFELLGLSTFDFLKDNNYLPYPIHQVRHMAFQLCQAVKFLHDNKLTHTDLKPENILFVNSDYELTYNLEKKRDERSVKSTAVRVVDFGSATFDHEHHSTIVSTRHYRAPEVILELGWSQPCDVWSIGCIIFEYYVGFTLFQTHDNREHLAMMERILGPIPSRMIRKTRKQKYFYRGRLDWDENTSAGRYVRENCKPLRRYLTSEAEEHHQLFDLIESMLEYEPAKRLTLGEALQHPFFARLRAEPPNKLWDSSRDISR

[5] = target: Casein kinase I isoform epsilon (Homo sapiens, UniProt P49674)
Casein kinase I isoform epsilon, sequence (P49674 whole entry, canonical isoform): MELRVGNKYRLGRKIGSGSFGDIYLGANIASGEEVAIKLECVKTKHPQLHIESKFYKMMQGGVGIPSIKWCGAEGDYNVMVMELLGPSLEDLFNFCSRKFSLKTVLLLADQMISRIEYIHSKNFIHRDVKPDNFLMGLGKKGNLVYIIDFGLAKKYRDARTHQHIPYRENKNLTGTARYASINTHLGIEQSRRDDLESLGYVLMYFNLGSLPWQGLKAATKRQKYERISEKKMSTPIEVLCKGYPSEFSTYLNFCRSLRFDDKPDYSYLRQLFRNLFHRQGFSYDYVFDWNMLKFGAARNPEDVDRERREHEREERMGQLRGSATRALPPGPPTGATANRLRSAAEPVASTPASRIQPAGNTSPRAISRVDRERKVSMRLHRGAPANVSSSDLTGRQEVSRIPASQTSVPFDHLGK

[6] = target: Glycogen synthase kinase-3 beta (Homo sapiens, UniProt P49841); format: cell-based, Sf9
Glycogen synthase kinase-3 beta, sequence (P49841 whole entry): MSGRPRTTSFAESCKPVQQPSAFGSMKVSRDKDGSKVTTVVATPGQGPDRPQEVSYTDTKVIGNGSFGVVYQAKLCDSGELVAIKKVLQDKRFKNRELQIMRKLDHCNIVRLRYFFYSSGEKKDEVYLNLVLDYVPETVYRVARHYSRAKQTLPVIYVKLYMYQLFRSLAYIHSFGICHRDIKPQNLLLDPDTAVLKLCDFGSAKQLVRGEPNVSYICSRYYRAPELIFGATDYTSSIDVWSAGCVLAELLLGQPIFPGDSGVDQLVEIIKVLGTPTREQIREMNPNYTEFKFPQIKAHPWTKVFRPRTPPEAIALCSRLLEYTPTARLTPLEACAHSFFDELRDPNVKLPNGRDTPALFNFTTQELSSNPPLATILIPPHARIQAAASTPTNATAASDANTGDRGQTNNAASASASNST

[7] = target: Cyclin-dependent kinase 5/CDK5 activator 1 (Homo sapiens, UniProt Q00535); format: cell-based, Sf9
Cyclin-dependent kinase 5/CDK5 activator 1, sequence (Q00535 whole entry): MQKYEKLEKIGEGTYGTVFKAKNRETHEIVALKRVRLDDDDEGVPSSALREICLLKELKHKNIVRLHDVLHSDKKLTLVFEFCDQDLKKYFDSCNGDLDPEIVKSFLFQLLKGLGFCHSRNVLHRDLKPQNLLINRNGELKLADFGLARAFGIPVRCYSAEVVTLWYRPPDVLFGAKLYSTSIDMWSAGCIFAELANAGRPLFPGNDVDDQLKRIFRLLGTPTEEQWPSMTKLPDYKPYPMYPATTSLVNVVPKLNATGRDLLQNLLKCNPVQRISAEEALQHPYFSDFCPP
Cyclin-dependent kinase 5/CDK5 activator 1, sequence (Q15078 whole entry, further chain): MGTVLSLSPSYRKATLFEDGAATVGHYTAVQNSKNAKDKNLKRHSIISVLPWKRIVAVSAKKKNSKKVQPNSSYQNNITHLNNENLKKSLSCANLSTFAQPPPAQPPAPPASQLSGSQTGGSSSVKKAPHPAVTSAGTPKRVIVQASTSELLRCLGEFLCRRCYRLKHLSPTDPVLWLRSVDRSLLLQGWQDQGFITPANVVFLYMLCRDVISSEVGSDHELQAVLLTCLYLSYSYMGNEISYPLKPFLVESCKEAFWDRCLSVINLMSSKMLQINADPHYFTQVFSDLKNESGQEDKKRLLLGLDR

Dual specificity protein kinase CLK3, sequence (P49761 whole entry): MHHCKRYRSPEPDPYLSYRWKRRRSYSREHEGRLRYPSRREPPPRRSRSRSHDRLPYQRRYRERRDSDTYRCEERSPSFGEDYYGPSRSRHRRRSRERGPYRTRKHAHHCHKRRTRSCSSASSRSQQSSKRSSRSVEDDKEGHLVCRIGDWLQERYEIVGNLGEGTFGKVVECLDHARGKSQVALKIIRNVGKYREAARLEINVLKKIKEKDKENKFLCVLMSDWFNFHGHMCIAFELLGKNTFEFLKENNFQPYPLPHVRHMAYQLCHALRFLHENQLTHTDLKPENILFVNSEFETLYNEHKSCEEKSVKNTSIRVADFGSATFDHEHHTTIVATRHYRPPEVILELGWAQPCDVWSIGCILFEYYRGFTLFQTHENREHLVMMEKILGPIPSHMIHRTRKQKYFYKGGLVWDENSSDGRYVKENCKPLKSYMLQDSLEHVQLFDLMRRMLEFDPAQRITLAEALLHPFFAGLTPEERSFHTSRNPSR

SMILES	pIC50 [1]	pIC50 [2]	pIC50 [3]	pIC50 [4]	pIC50 [5]	pIC50 [6]	pIC50 [7]
COC[C@H](NC1=N/C(=C\c2ccc3ncsc3c2)C(=O)N1)c1ccccc1	6.90	6.47	6.80	7.82	< 5.00	5.29	< 5.00
O=C1NC(N[C@@H](CO)CC2CCCC2)=N/C1=C\c1ccc2ncsc2c1	5.84	5.76	5.40	7.40	< 5.00	5.54	< 5.00
O=C1NC(N[C@H]2CC[C@H](O)CC2)=N/C1=C\c1ccc2ncsc2c1	6.41	5.75	6.20	7.01	< 5.00	5.02	5.31
O=C1NC(NCC23CC4CC(CC(C4)C2)C3)=N/C1=C\c1ccc2ncsc2c1	5.83	5.43	< 5.00	7.43		< 5.00	< 5.00
CC[C@H](CO)NC1=N/C(=C\c2ccc3ncsc3c2)C(=O)N1	5.94	5.80	5.81	6.67	< 5.00	< 5.00	< 5.00
O=C1NC(NCc2cccnc2)=N/C1=C\c1ccc2ncsc2c1	6.15	5.86	5.70	7.28	< 5.00	5.55	< 5.00
O=C1NC(N[C@@H](CO)CC2CC2)=N/C1=C\c1ccc2ncsc2c1	6.16	6.14	5.09	7.38	< 5.00	5.36	< 5.00
Cn1ccc(NC2=N/C(=C\c3ccc4ncsc4c3)C(=O)N2)n1	6.70	5.38	5.95	6.95	< 5.00	5.59	< 5.00
O=C1NC(NC2C3CC4CC(C3)CC2C4)=N/C1=C\c1ccc2ncsc2c1 (centres undefined)	5.92	6.90	6.24	7.72	< 5.00	5.32	< 5.00
CC[C@@H](CO)NC1=N/C(=C\c2ccc3ncsc3c2)C(=O)N1	5.80	5.50	5.76	6.32	< 5.00	< 5.00	< 5.00
O=C1NC(Nc2ccc(F)cc2)=N/C1=C\c1ccc2ncsc2c1	5.74		6.13	6.39	< 5.00	< 5.00	< 5.00
COC[C@@H](NC1=N/C(=C\c2ccc3ncsc3c2)C(=O)N1)c1ccccc1	6.35	5.42	6.59	6.21	< 5.00	5.25	< 5.00
CN1CCN(c2ncc(NC3=N/C(=C\c4ccc5ncsc5c4)C(=O)N3)cn2)CC1	5.72	6.53	6.76	6.84	< 5.00	5.93	< 5.00
